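Dose response: 5 concentrations. Exposure: 48 h. Format: 96-well plates. Endpoint: linear interpolation; highest concentration if not reached. GI50 is the concentration that inhibits growth by half.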 The source made the active and inactive calls. Rule as the data show it: active = GI50 up to about 1.1 µM and inactive = higher.
What was measured:
Test in all cases: NCI anticancer screen, dose series, 48 h
[1] = system: RPMI-8226
[2] = system: HCT-15
[3] = system: DLD-1
[4] = system: ACHN
[5] = system: IGROV-1
[6] = system: NCI-H460
[7] = system: MOLT-4
[8] = system: A549
[9] = system: HT-29
[10] = system: TK-10
[11] = system: SK-MEL-28
[12] = system: UO-31
[13] = system: M14
[14] = system: NCI-H226
[15] = system: OVCAR-8
[16] = system: UACC-62
[17] = system: DU-145
[18] = system: T47D
[19] = system: PC-3
[20] = system: MCF7

| Compound | GI50 [1] | GI50 [2] [µM] | GI50 [3] | GI50 [4] | GI50 [5] | GI50 [6] | GI50 [7] | GI50 [8] | GI50 [9] | GI50 [10] | GI50 [11] | GI50 [12] | GI50 [13] | GI50 [14] | GI50 [15] | GI50 [16] | GI50 [17] | GI50 [18] | GI50 [19] | GI50 [20] |
| --- | --- | --- | --- | --- | --- | --- | --- | --- | --- | --- | --- | --- | --- | --- | --- | --- | --- | --- | --- | --- |
| [O-][S+](Cc1ccccc1)c1nc2ccccc2nc1-c1cccs1 (stereo unspecified) | 17.9 µM (inactive) | 9.29 | 11 µM (inactive) | 13.9 µM (inactive) | 14.6 µM (inactive) | 20 µM (inactive) | 3.53 µM (inactive) | 15.2 µM (inactive) | 11.7 µM (inactive) | 14.3 µM (inactive) | 11.3 µM (inactive) | 24.8 µM (inactive) | 11 µM (inactive) | 4.06 µM (inactive) | 13.7 µM (inactive) | – | – | – | – | – |
| CCCCC(C(=O)C(=O)Nc1ccccc1CC)C(=O)C(C)C (stereo unspecified) | > 100 µM (inactive) | > 100 | > 100 µM (inactive) | > 100 µM (inactive) | > 100 µM (inactive) | > 100 µM (inactive) | > 100 µM (inactive) | > 100 µM (inactive) | > 100 µM (inactive) | > 100 µM (inactive) | – | > 100 µM (inactive) | > 100 µM (inactive) | > 100 µM (inactive) | > 100 µM (inactive) | > 100 µM (inactive) | – | – | – | – |
| CCCCC(=O)OC[n+]1ccc2c(C)c3[nH]c4ccccc4c3c(C)c2c1 | 0.195 µM (active) | 0.222 | 0.37 µM (active) | 0.187 µM (active) | 0.502 µM (active) | 0.0275 µM (active) | 0.0775 µM (active) | 0.267 µM (active) | 0.46 µM (active) | 1.21 µM (inactive) | 1.32 µM (inactive) | 0.701 µM (active) | 1.34 µM (inactive) | 0.475 µM (active) | 0.385 µM (active) | 1.26 µM (inactive) | 1.04 µM (active) | 1.01 µM (active) | 0.298 µM (active) | 0.18 µM (active) |
| O=C(COc1ccc(/C=C/C(=O)c2ccc(Cl)cc2)cc1)Nc1c(Cl)cccc1Cl | 30.2 µM (inactive) | > 100 | > 100 µM (inactive) | > 100 µM (inactive) | > 100 µM (inactive) | > 100 µM (inactive) | 10.7 µM (inactive) | > 100 µM (inactive) | > 100 µM (inactive) | > 100 µM (inactive) | > 100 µM (inactive) | > 100 µM (inactive) | > 100 µM (inactive) | > 100 µM (inactive) | 51.4 µM (inactive) | > 100 µM (inactive) | – | – | – | – |
| Cc1c(C(=O)/C=C/C=C/c2ccccc2)[n+]([O-])c2ccccc2[n+]1[O-] | > 10 µM (inactive) | 15.2 | 14.5 µM (inactive) | 25.7 µM (inactive) | 26.3 µM (inactive) | 18.8 µM (inactive) | 40.5 µM (inactive) | 22.9 µM (inactive) | > 10 µM (inactive) | 50.8 µM (inactive) | 18.9 µM (inactive) | 38.4 µM (inactive) | 19.8 µM (inactive) | 64.3 µM (inactive) | 42.8 µM (inactive) | 16 µM (inactive) | – | – | – | – |
| CC(C)(C)C1=CC(=C(P(=O)(O)O)P(=O)(O)O)C=C(C(C)(C)C)C1=O | > 50 µM (inactive) | > 50 | > 50 µM (inactive) | > 50 µM (inactive) | > 50 µM (inactive) | > 50 µM (inactive) | > 50 µM (inactive) | > 50 µM (inactive) | > 50 µM (inactive) | > 50 µM (inactive) | > 50 µM (inactive) | > 50 µM (inactive) | > 50 µM (inactive) | > 50 µM (inactive) | > 50 µM (inactive) | > 50 µM (inactive) | – | – | – | – |
| CC1=C(C)C(=O)c2c(cc3c4ccccc4ccn23)C1=O | > 100 µM (inactive) | > 100 | > 100 µM (inactive) | > 100 µM (inactive) | > 100 µM (inactive) | > 100 µM (inactive) | > 100 µM (inactive) | > 100 µM (inactive) | > 100 µM (inactive) | > 100 µM (inactive) | > 100 µM (inactive) | > 100 µM (inactive) | > 100 µM (inactive) | > 100 µM (inactive) | > 100 µM (inactive) | > 100 µM (inactive) | – | – | – | – |
| CC1(C)C(=O)C(O)=CC2C1=CCC1C2(C)C(=O)CC2(C)C(C(C)(O)C(=O)CC(O)C(C)(C)O)C(O)CC12C (stereo unspecified) | 3.4 µM (inactive) | 3.18 | 3.19 µM (inactive) | 2.3 µM (inactive) | 2.64 µM (inactive) | 3.39 µM (inactive) | 17.1 µM (inactive) | 3.04 µM (inactive) | 3.35 µM (inactive) | 2.54 µM (inactive) | 2.69 µM (inactive) | 2.02 µM (inactive) | 3.54 µM (inactive) | 2.86 µM (inactive) | 12.6 µM (inactive) | 5.52 µM (inactive) | – | – | – | – |
| C=CCSc1ncnc2c1ncn2C1OC(CO)C(O)C1O (stereo unspecified) | 32.5 µM (inactive) | 7.94 | 2.75 µM (inactive) | 20.1 µM (inactive) | > 100 µM (inactive) | 38.9 µM (inactive) | 3.58 µM (inactive) | > 100 µM (inactive) | 32.6 µM (inactive) | 68.7 µM (inactive) | > 100 µM (inactive) | 42.1 µM (inactive) | 33 µM (inactive) | > 100 µM (inactive) | 3.85 µM (inactive) | > 100 µM (inactive) | – | – | – | – |
